Laboratory results from patent US8242167B2, “Mannose derivatives for killing tumor cells” (University of Miami, priority 2006, dated 2012).

Assays:
HELA, cervical cancer = test: Cytotoxicity under normoxia, HELA; type: cell-based; settings: column head gives the result: sensitive
Procedure: (§1) Cell types. The Δ^0 cells were isolated by treating osteosarcoma cell line 143B (wt) with ethidium bromide for prolonged periods, as previously described (9). Because the Δ^0 cells are uridine and pyruvate auxotrophs, they were grown in DMEM (GIBCO, USA) supplemented with 10% fetal calf serum, 50 μg/ml of uridine and 100 mM sodium pyruvate. The SKBR3 cell line was obtained from Dr. Joseph Rosenblatt's laboratory at the University of Miami. The pancreatic cancer cell lines 1420 and 1469, the ovarian cancer cell line SKOV3, the cervical cancer cell line HELA, and the osteosarcoma cell line 143B were purchased from ATCC. The non-small cell lung cancer and small cell lung cancer cell lines were derived from patients by Dr. Niramol Savaraj at the University of Miami. SKBR3 and SKOV3 cells were grown in McCoy's 5A medium; 1420, 1469 and 143B were grown in DMEM (GIBCO, USA); and HELA was grown in MEM (GIBCO, USA). The media was supplemented with 10% fetal bovine serum. All cells were grown under 5% CO2 and 37° C. Cytotoxicity assay. Cells were incubated for 24 hr at 37° C. in 5% CO2 at which time drug treatments began and continued for 72 hr. […] The pellets were resuspended in 1 ml of Hanks solution and analyzed by Vi-Cell (Beckman Coulter, USA) cell viability analyzer.

1420, pancreatic cancer = test: Cytotoxicity under normoxia, 1420; type: cell-based, human; settings: column head gives the result: sensitive
Procedure: (§2) Cell types. The Δ^0 cells were isolated by treating osteosarcoma cell line 143B (wt) with ethidium bromide for prolonged periods, as previously described (9). Because the Δ^0 cells are uridine and pyruvate auxotrophs, they were grown in DMEM (GIBCO, USA) supplemented with 10% fetal calf serum, 50 μg/ml of uridine and 100 mM sodium pyruvate. The SKBR3 cell line was obtained from Dr. Joseph Rosenblatt's laboratory at the University of Miami. The pancreatic cancer cell lines 1420 and 1469, the ovarian cancer cell line SKOV3, the cervical cancer cell line HELA, and the osteosarcoma cell line 143B were purchased from ATCC. The non-small cell lung cancer and small cell lung cancer cell lines were derived from patients by Dr. Niramol Savaraj at the University of Miami. SKBR3 and SKOV3 cells were grown in McCoy's 5A medium; 1420, 1469 and 143B were grown in DMEM (GIBCO, USA); and HELA was grown in MEM (GIBCO, USA). The media was supplemented with 10% fetal bovine serum. All cells were grown under 5% CO2 and 37° C.
(§3) Cytotoxicity assay. Cells were incubated for 24 hr at 37° C. in 5% CO2 at which time drug treatments began and continued for 72 hr. At this time, attached cells were trypsinized and combined with their respective culture media followed by centrifugation at 400 g for 5 min. The pellets were resuspended in 1 ml of Hanks solution and analyzed by Vi-Cell (Beckman Coulter, USA) cell viability analyzer.

[1] = animal studies and preliminary Phase I results; cited from earlier work
CHOP/GADD154 = test: Western blot of CHOP/GADD154 in SKBR3 cells; type: cell-based, human; settings: SKBR3, normoxia, 24 hrs; 8 mM sugar analog
Procedure: (§4) Western Blot analysis. Cells were plated at 10^4 cell cm^−2 and grown under drug treatment for the indicated times. At the end of the treatment period, cells were collected and lysed with 1% SDS in 80 mM Tris-HCL (ph 7.4) buffer supplemented with a proteinase inhibitor cocktail. DNA was fragmented by sonication and protein concentrations were measured by microBCA protein assay kit (Pierce, USA). Samples were mixed with 2× Laemmli sample buffer (Bio-Rad, USA) and run on a SDS-polyacrylamide gel. Gels were transferred to nitrocellulose membranes (Amersham, USA) and probed with anti-KDEL (Stressgen, Canada) (for Grp78 and Grp94); polyclonal anti-CHOP/[…] (Santa Cruz, USA), polyclonal anti-erbB2 (DAKO, USA). Following probing, membranes were washed and incubated with an HRP conjugated secondary antibody. Chemiluminesence was detected by exposure to film. Where indicated, membranes were stripped with Stripping Buffer (Pierce, USA) and reprobed with anti-actin (Sigma, USA) primary antibody. To analyze conconavalin A (ConA) binding, the membranes were incubated with 0.2 μg/ml HRP-conjugated ConA, and chemiluminescence was detected as described.

HEPA-1 = test: Cytotoxicity under normoxia, HEPA-1; type: cell-based, rat; settings: column head gives the result: resistant
Procedure: as §3

[2] = test system: S-1 & S-2, non-small cell lung cancer; test: Cytotoxicity under normoxia, NSCLC; type: cell-based, human; settings: normoxic conditions
Procedure: as §1

Grp78 and Grp94 [3] = test: Western blot of Grp78 and Grp94 (unfolded protein response) in SKBR3 cells under normoxia; type: cell-based, human
Procedure: as §4

143B, osteosarcoma = test: Cytotoxicity under normoxia, 143B; type: cell-based, human; settings: column head gives the result: resistant
Procedure: as §1

[4] = test system: glycoproteins (ConA binding) in SKBR3 cells; test: HRP-conjugated ConA blot of SKBR3 cell extracts; type: cell-based, human; settings: SKBR3, 48 hr, 8 mM sugar analog
Procedure: as §4

1469, pancreatic cancer = test: Cytotoxicity under normoxia, 1469; type: cell-based; settings: column head gives the result: resistant
Procedure: as §1

SKOV3, ovarian cancer = test: Cytotoxicity under normoxia, SKOV3; type: cell-based; settings: column head gives the result: resistant
Procedure: as §1

fowl plague virus = settings: chick embryo fibroblasts infected with fowl plague virus; cited from earlier work
MCF-7, breast cancer = test: Cytotoxicity under normoxia, MCF-7; type: cell-based; settings: column head gives the result: resistant
Procedure: as §3

human tumor xenografts = settings: different human tumor xenografts; cited from earlier work
[5] = test system: TG98, brain cancer (glioblastoma); test: Cytotoxicity under normoxia, TG98; type: cell-based; settings: column head gives the result: sensitive
Procedure: as §3

[6] = test system: MDA-MB-231, breast cancer; test: Cytotoxicity under normoxia, MDA-MB-231; type: cell-based; settings: column head gives the result: resistant
Procedure: as §3

[7] = test system: MDA-MB-468, breast cancer; test: Cytotoxicity under normoxia, MDA-MB-468; type: cell-based; settings: column head gives the result: resistant
Procedure: as §3

Grp78 and Grp94 [8] = test: Western blot of Grp78 and Grp94 in models of hypoxia A, B & C; type: cell-based
Procedure: as §4
Three in vitro models of hypoxia. We previously characterized three models of anaerobiosis as follows: Model A are tumor cells treated with 0.05 μg/ml of oligomycin (a mitochondrial inhibitor of ATP synthase); Model B are cells that are deficient in mitochondrial DNA and Model C are cells treated in an hypoxic (0.5% O^2) chamber (Reming Bioinstruments, Redfield, N.Y.).

tumor cell lines = test: Toxicity survey of tumor cell lines under normoxic conditions; type: cell-based
Procedure: as §2, §3

SKBR3 cells = test: Growth inhibitory and cytotoxicity assay in SKBR3 cells under normoxia; type: cell-based, human
Procedure: Cytotoxicity assay and Rapid DNA Content Analysis. Cells were incubated for 24 hr at 37° C. in 5% CO2 at which time drug treatments began and were continued for 72 hr. At this time, attached cells were trypsinized and combined with their respective culture media followed by centrifugation at 400 g for 5 min. Pellets containing the cells were either resuspended in 1.5 ml of a medium/trypan blue mixture for cytotoxicity assays or propidium iodide/hypotonic citrate staining solution for determining the nuclear DNA content and cell cycle by a Coulter XL flow cytometer. A minimum of 10,000 cells were analyzed to generate a DNA distribution histogram.
as §3

erbB2 = test: Western blot of erbB2 in SKBR3 cells; type: cell-based, human
Procedure: as §4

O=CC[C@@H](O)[C@H](O)[C@H](O)CO [2-DG, 2-deoxy-D-glucose]
2-DG Sensitive Cell Lines (2-DG under normoxia) (HELA, cervical cancer): HELA, cervical cancer | 2-DG Sensitive Cell Lines (2-DG under normoxia) (1420, pancreatic cancer): 1420, pancreatic cancer | tolerability [1]: well-tolerated and relatively non-toxic to normal cells | induction of GADD154/CHOP (CHOP/GADD154): induced | 2-DG Resistant Cell Lines (2-DG under normoxia) (HEPA-1): HEPA-1, rat hepatoma | toxicity to NSCLC [2]: toxic | expression of chaperones Grp78 and Grp94 (Grp78 and Grp94 [3]; SKBR3, normoxia, 24 hrs, 8 mM sugar analog, tunicamycin 1 micro g/ml): both Grp78 and Grp94 are upregulated | up-regulation of GRP 78 and 94, dose dependence (Grp78 and Grp94 [3]; select tumor cells, normoxic conditions): up-regulated by 2-DG and 2-FM in a dose-dependent manner | 2-DG Resistant Cell Lines (2-DG under normoxia) (143B, osteosarcoma): 143B, osteosarcoma | ConA binding of glycoproteins [4]: decrease ConA binding | 2-DG Resistant Cell Lines (2-DG under normoxia) (1469, pancreatic cancer): 1469, pancreatic cancer | 2-DG Resistant Cell Lines (2-DG under normoxia) (SKOV3, ovarian cancer): SKOV3, ovarian cancer | order of potency to inhibit viral glycoprotein synthesis (fowl plague virus): 2-DG>2-FDM>2-FDG | 2-DG Resistant Cell Lines (2-DG under normoxia) (MCF-7, breast cancer): MCF-7, breast cancer | effect on efficacy of standard chemotherapeutic agents (human tumor xenografts): increases the efficacy of standard chemotherapeutic agents | 2-DG Sensitive Cell Lines (2-DG under normoxia) [5]: TG98, brain cancer (glioblastoma) | 2-DG Resistant Cell Lines (2-DG under normoxia) [6]: MDA-MB-231, breast cancer | 2-DG Resistant Cell Lines (2-DG under normoxia) [7]: MDA-MB-468, breast cancer | upregulation of the UPR (Grp78, Grp94) (Grp78 and Grp94 [8]; hypoxia model C): both chaperones are upregulated | upregulation of the UPR (Grp78, Grp94) (Grp78 and Grp94 [8]; hypoxia models A and B): no significant upregulation of the UPR | tumor cell lines undergoing significant cell death (tumor cell lines; 6 mM, normal oxygen tension): 6 out of 15 | dose at which a select number of tumor cell lines are killed (tumor cell lines; normal oxygen tension): 4 mM | toxicity to select tumor cell types (tumor cell lines; normoxia): toxic to select tumor cell types growing under normoxia | cells killed (SKBR3 cells; SKBR3, 12 mM, 72 hrs, normoxic conditions): 60% | cytotoxicity measured by trypan blue exclusion (SKBR3 cells; SKBR3, 72 hrs, normal oxygen conditions): toxic | 2-DG Sensitive Cell Lines (2-DG under normoxia) (SKBR3 cells; column head gives the result: sensitive): SKBR3, breast cancer | rank order in growth inhibiting and killing SKBR3 cells (SKBR3 cells; normoxia): 2-DG>2-FDM>>>2-FDG | molecular weight of erbB2 (erbB2): decreased the molecular weight of erbB2
